The text below walks through data of patent publication US10172957B2, “Acid-labile lipophilic prodrugs of cancer chemotherapeutic agents” (priority 2011, dated 2019).

The structures appear in SMILES notation.

In one data set the test system is CEM/VM-1-5 cells (MDR+). Nature of the data set: cells. The data set is classed as cell-based, human. The note with it: for IC50: Homo sapiens, read-out: IC50 CEM/VM-1-5 (MDR + HTL), CEM/VM-1-5, MTT; for Degree of resistance (CEM/VM-1-5): IC50 of the resistant line divided by IC50 of sensitive CEM cells. From the text:
A second evaluation of the cytotoxicity of the acid labile, lipophilic molecular conjugates was undertaken. […]
The second set of cells tested, CCRF-CEM or simply CEM, were derived from the blood of a patient with acute lymphoblastic leukemia. G. E. Foley, H. Lazarus, S. Farber, B. G. Uzman, B. A. Boone, and R E. McCarthy. Continuous culture of human lymphoblasts from peripheral blood of a child with acute leukemia. Cancer 18: 522-529 (1965). The subline CEM/VLB100 was developed to be resistant to up to vinblastine at 100 ng/ml. W. T. Beck, T. J. Mueller, and L. R. Tanzer. Altered surface membrane glycoproteins in Vinca alkaloid-resistant human leukemic lymphoblasts. Cancer Research 39: 2070-2076 (1979). Drug resistance is achieved by overexpression of the MDR1 gene. Resistance in the CEM subline designated CEM/VM-1-5, however, is “atypical.” M. K. Danks, J. C. Yalowich, and W. T. Beck. Atypical multiple drug resistance in a human leukemic cell line selected for resistance to teniposide (VM-26). Cancer Research 47: 1297-1301 (1987). The classes of drugs included in the “classic” multiple drug resistance phenotype are Vinca alkaloids, anthracyclines, epipodophyllotoxins and antibiotics. However, CEM/VM-1-5 cells retain sensitivity to the Vinca alkaloids despite resistance and cross-resistance to etoposide, anthracyclines and mitoxantrone. Danks, M. K.; Schmidt, C. A.; Cirtain, M. C.; Suttle, D. P.; Beck, W. T., Altered catalytic activity of and DNA cleavage by DNA topoisomerase II from human leukemic cells selected for resistance to VM-26. Biochemistry 1988, 27, 8861-8869. Resistance in CEM/VM-1-5 cells is effected by over expression of the […]. CEM, CEM/VLB100 and CEM/VM-1-5 cells were obtained from Dr. WT Beck, University of Illinois at Chicago.

A short description of data set [1]: Stability in human plasma at 37° C. The data set is classed as in vitro ADME. Here is the method: The stability of the acid labile, lipophilic molecular conjugates to hydrolysis in plasma was evaluated to determine their potential to release the active cancer chemotherapeutic agents into systemic circulation and thereby cause general off target toxicity (“side effects”). The conjugates were incubated with plasma of mouse, rat and human origin.
HPLC grade Methanol from Fisher (Fair lawn, NJ, USA). Part No: A452-4 (074833). HPLC grade Water from Fisher (Fair lawn, NJ, USA). Part No: W5-4 (073352). Drug-free mouse, rat and human plasmas were purchased from Innovative Research Inc. (Southfield, Mich., USA). LIPOSYN® I.V. (30% soybean oil and egg yolk phospholipids, Abbott Laboratories) Fat Emulsion from Hospira, Inc. (Lake Forest, Ill.).
Each drug (ART 198, ART 273, ART 488 and ART 489) was prepared in triplicate in mouse, rat and human plasma individually at […] concentration and vortexed for 1 minute and placed in a water bath at 37° C. at a shake rate of 75 per minute. Samples were drawn at time points of 0, 15, 30, 45, 60, 75, 90, 105, 120, 135, 150, 165, 180, 210, 240, 300, 360 and 480 minutes.
Chromatographic separation of the compounds was performed on a Waters Acquity UPLC™ using a BEH C18 column (1.7 μm, 2.1×50 mm). The mobile phase consisted of Methanol: 0.1% Formic acid (80:20). The flow rate was 0.3 ml/min; the sample injection volume was 5 μL, resulting in a 3 minute run time.
The MS instrumentation consisted of a Waters Micromass Quattro Micro™ triple-quadrupole system (Manchester, UK). The MS system was controlled by a 4.0 version of MassLynx software. Ionization was performed in the positive electrospray ionization mode. MS/MS conditions were the following: capillary voltage 3.02 kV; cone voltage 50 v; extractor voltage 5 v; and RF lens voltage 0.5 v. The source and desolvation temperatures were 100° C. and 400° C. respectively, and the desolvation and cone gas flow were 400 and 30 L/hr, respectively.
The selected mass-to-charge (m/z) ratio transitions of the ART 198 used in the selected ion monitoring (SIM) were: for ART 198, 617 (M+K)^+, for ART 273, 589 (M+K)^+, for ART 488, 913 (M+Na)^+, and for ART 489, 957 (M+Na)^+. The dwell time was set at 200 msec. MS conditions were optimized using direct infusion of standard solutions prepared in methanol and delivered by a syringe pump at a flow rate of 20 μL/min.
Samples of 100 μL were collected at time points of 0, 15, 30, 45, 60, 75, 90, 105, 120, 135, 150, 165, 180, 210, 240, 300, 360 and 480 minutes respectively and the reaction was terminated with methanol. In a separate set of experiments the acid labile, lipophilic molecular conjugates were dissolved in a small amount of ethanol and diluted into a lipid emulsion (Liposyn®) and added to mouse and human plasma before incubation and the hydrolysis of the conjugates was similarly measured. Collected plasma samples of 100 μL containing drug were placed in separate Eppendorf micro centrifuge tubes for processing. Methanol (200 μL) was added to extract the drug using the protein precipitation technique. The micro tubes were then vortex mixed for 10 minutes and centrifuged for 15 minutes at a speed of 10,000 rpm (Eppendorf 5415C centrifuge). The supernatant was collected and filtered using a 0.45 μm filter (Waters 13 mm GHP 0.45 μm) before analysis.
The weighted linear least-squares (1/x) regression was used as the mathematical model. The coefficient (r) for the compounds ranged from 0.9925 to 0.9999. The calibration range was selected according to the concentrations anticipated in the samples to be determined.
Samples were collected at various times and the percent remaining of the acid labile, lipophilic molecular conjugate of the cancer chemotherapeutic agent was determined along with the percent of the chemotherapeutic agent released from the hydrolysis of the conjugate.

As for `CCCCCCCCCCCCCCCC1OCC(COC(=O)OC2=C(C)[C@@H]3C[C@H]4OC(=O)C(OC(=O)CC5(O)CCCCC5)[C@H]5[C@]6(C(=O)OC)OC[C@]45[C@H]([C@@H](O)[C@@H]6O)[C@@]3(C)CC2=O)O1` (stereo partly drawn) [ART 489], the IC50 in the data set with CEM/VM-1-5 cells (MDR+) turned out to be 24 ± 4 nM. The “Degree of resistance (CEM/VM-1-5)” value in the data set with CEM/VM-1-5 cells (MDR+) turned out to be 1.2 ± 0.07. In addition, the “percent remaining of initial drug” value in data set [1] (0 min) was 100%; in data set [1] (15 min), 99.3%; in data set [1] (30 min), 98.8%; in data set [1] (45 min) it was 98.4%; in data set [1] (60 min), 97.4%; in data set [1] (75 min), 94.6%. Further, the “percent remaining of initial drug” value in data set [1] (90 min) turned out to be 93.7%; in data set [1] (105 min), 93.0%; in data set [1] (120 min) it was 91.9%; in data set [1] (135 min), 91.7%; in data set [1] (150 min), 90.9%; in data set [1] (165 min), 90.4%. For the same compound, the “percent remaining of initial drug” value in data set [1] (180 min) was 90.1%; in data set [1] (210 min) it was 89.0%; in data set [1] (240 min), 86.7%; in data set [1] (300 min), 84.1%; in data set [1] (360 min) it was 78.7%; in data set [1] (480 min), 65.9%.
As to `CCCCCCCCCCCCCCCC1OCC(COC(=O)O[C@@H]2C(=O)C=C(C)[C@@H]3C[C@H]4OC(=O)C(OC(=O)CC(O)(C(C)C)C(C)C)C5[C@@H](C)[C@@H](O)[C@@]6(O)OC[C@@]54C6[C@@]23C)O1` (stereo partly drawn) [ART 488], in the data set with CEM/VM-1-5 cells (MDR+), the IC50 came to 8 ± 4 nM. The “Degree of resistance (CEM/VM-1-5)” value with CEM/VM-1-5 cells (MDR+) turned out to be 2 ± 1. Besides, the “percent remaining of initial drug” value in data set [1] (0 min) amounted to 100%; in data set [1] (15 min), 90.8%; in data set [1] (30 min) it was 89.1%; in data set [1] (45 min), 87.8%; in data set [1] (60 min), 87.9%; in data set [1] (75 min) it was 87.9%. For the same compound, the “percent remaining of initial drug” value was determined as 87.1% in data set [1] (90 min); 86.2% in data set [1] (105 min); 85.3% in data set [1] (120 min); 84.0% in data set [1] (135 min); 82.7% in data set [1] (150 min); 81.1% in data set [1] (165 min). In addition, the “percent remaining of initial drug” value in data set [1] (180 min) is 78.6%; in data set [1] (210 min), 78.1%; in data set [1] (240 min), 76.5%; in data set [1] (300 min) it was 59.3%; in data set [1] (360 min) it was 59.8%; in data set [1] (480 min), 43.6%.
For `COC(=O)[C@@]12OC[C@]34[C@H]([C@@H](O)[C@@H]1O)[C@@]1(C)CC(=O)C(O)=C(C)[C@@H]1C[C@H]3OC(=O)C(OC(=O)CC1(O)CCCCC1)[C@@H]24` (stereo partly drawn) [ART 198], the IC50 with CEM/VM-1-5 cells (MDR+) came out at 308 ± 10 nM. The “Degree of resistance (CEM/VM-1-5)” value with CEM/VM-1-5 cells (MDR+) is listed as 3 ± 1. The “percent remaining of initial drug” value came out at 100% in data set [1] (0 min); 99.3% in data set [1] (15 min); 99.1% in data set [1] (30 min); 94.9% in data set [1] (45 min); 94.6% in data set [1] (60 min); 93.1% in data set [1] (75 min). For the same compound, the “percent remaining of initial drug” value in data set [1] (90 min) is listed as 89.9%; in data set [1] (105 min), 87.0%; in data set [1] (120 min) it was 68.5%; in data set [1] (135 min), 66.4%; in data set [1] (150 min) it was 61.1%; in data set [1] (165 min) it was 59.6%. Besides, the “percent remaining of initial drug” value in data set [1] (180 min) is given as 48.6%; in data set [1] (210 min), 47.6%; in data set [1] (240 min), 46.0%; in data set [1] (300 min), 44.4%; in data set [1] (360 min), 39.6%; in data set [1] (480 min), 34.2%.
